From US20100310674A1, “NOVEL COMPOSITION FOR TREATING THE SIDE EFFECTS OF ANTICANCER TREATMENTS” (TROPHOS, priority 2007, published 2010) come the findings set out here.

Test [1] has as its system tactile allodynia induced by vincristine sulphate. Description: Tactile allodynia induced by cumulative doses of vincristine sulphate in the rat (paw withdrawal threshold, Dynamic Plantar Aesthesiometer). The format is in vivo, rat (WISTAR). Particulars: for anti-allodynic effect on first day of administration: day 10. How it is done: The effect of cholest-4-en-3-one oxime on tactile allodynia induced by cumulative doses of vincristine sulphate was evaluated in the rat. Adult male WISTAR rats weighing approximately 250 g were used. Vincristine sulphate was injected by intravenous route at 200 μg/kg on days 1, 4 and 6 (total cumulative dose of 600 μg/kg). The animal's paw withdrawal thresholds to harmless mechanical stimulation were measured in the rats on days 0, 3, 5, 7 and then every day from day 10 to day 14. The cholest-4-en-3-one oxime (10, 30 and 100 mg/kg once daily) was administered by oral route from day 10 to day 14 and the paw withdrawal thresholds were measured 4 hours after administration of the cholest-4-en-3-one oxime. 8 rats were used per tested dose. The mechanical stimulation thresholds at which the animals withdraw their hind paw in response to mechanical stimulations were measured using a Dynamic Plantar Aesthesiometer (Ugo Basile, Italy). Briefly, in a temperature-controlled room (approximately 22° C.) each animal was placed in a transparent cubic box made of Perspex (22×16.5×14 cm) containing a metal mesh floor giving access to the soles of its paws and left for 15 minutes before the test in order for it to acclimatize. A mechanical stimulus was applied to the left hind paw using a stainless filament (0.5 mm in diameter) exerting a force which increases linearly (2.5 g/sec). The force (g) at which the animal withdraws its paw was recorded automatically. Each paw withdrawal threshold was calculated as the average of three consecutive tests carried out at 5-minute intervals by an investigator ignorant of the treatments used on each of the animals. A 50 g limit was imposed in order to prevent tissue damage. A stock solution of cholest-4-en-3-one oxime in corn oil was prepared on the first day of the experiment and administered once daily by oral tube feeding (5 ml/kg). The cholest-4-en-3-one oxime was reduced to a fine powder and mixed with the necessary quantity of excipient in order to obtain concentrations of […], 6 and 20 mg/ml, the mixture is then homogenized by magnetic stirring for at least 10 minutes. Stock solutions were kept at 4° C. between administrations. A statistical analysis was carried out using a two-way ANOVA test followed by Tukey's test in order to compare the effect of the test compound with respect to the excipient.

For test [2], the system named is neuropathies induced by paclitaxel. Description: Hypersensitivity to pain (mechanical allodynia 4 gVFH, mechanical hyperalgesia 15 gVFH) in rat model of neuropathies induced by paclitaxel. Type of test: in vivo, rat (Sprague-Dawley). The note with it: for anti-allodynia (4 gVFH) / anti-hyperalgesia (15 gVFH): AUC D16-D40. On the procedure: Adult male Sprague-Dawley rats were used.
Paclitaxel (6 mg/ml in a 50:50 mixture of Cremophor and ethanol) was diluted just before use with a […] sodium chloride solution at a concentration of 2 mg/ml and injected by intraperitoneal route in a volume of 1 ml/kg on days 0, 2, 4 and 6.
Fresh solutions of cholest-4-en-3 one oxime (Sigma) in corn oil were prepared each week at a concentration of 0.6 or 6.0 mg/ml. This solution was given to the animal by oral tube feeding in a volume of 5 ml/kg.
Three groups of 12 animals treated with paclitaxel were formed: • group 1: cholest-4-en-3-one oxime at 3 mg/kg per os, daily for 17 days (day(−1)-day(15), commencing on the day before the first injection of paclitaxel and continuing for 9 days after the last injection of paclitaxel). On the days when the cholest-4-en-3-one oxime and the paclitaxel had to be administered, the cholest-4-en-3-one oxime was given at 9:00 h, and the paclitaxel at 13:00 h; • group 2: as above except that the cholest-4-en-3-one oxime was given at 30 mg/kg; • group 3: as above except that the animals received an identical volume of excipient (corn oil);
The animals were habituated to the test environment for 3 separate days and then 3 sessions per day were organized in order to establish the normal response to a von Frey hairs (VFH) stimulation exerting pressure of 4 g or 15 g (4 gVFH or 15 gVFH). Normal rats rarely withdraw from a stimulation with 4 gVFH; thus, an increase in response post treatment with paclitaxel is a sign of mechanical allodynia. Normal rats withdraw from a stimulation with 15 gVFH 10-20% of the time; thus an increased frequency of response to this stimulus indicates mechanical hyperalgesia.
The animals were placed in cages containing a metal mesh floor giving access to the soles of the animals' paws. Each mechanical stimulus was applied to the middle of the heel of the left hind paw. The presence or absence of withdrawal of the paw was noted. This was repeated 5 times on each hind paw and the animals' responses were summarized as a percentage of responses (5 withdrawals of the paw in response to a stimulation of 15 gVFH corresponded to a score of 50%).
The rats were habituated to the test environment for 3 days. Tests relating to the reference level of sensitivity at 4 g and 15 gVFH were carried out for 3 consecutive days; the average of the last two corresponded to the level of sensitivity before treatment with paclitaxel. The behaviour tests for testing the effects of paclitaxel commenced on day 16 and were repeated on days 19, 22, 25, 28, 31, 35 and 40, by an investigator ignorant of the treatments applied to each of the animals.
The area-under-the-curve values were calculated for each group during the period from D16 to D40 (from the start of the appearance of the pain due to the paclitaxel to the end of the experiment). The AUC values were analyzed with an ANOVA test followed by comparison “in pairs” with the group having received the excipient by Dunnett's t-test.

The subject of test [3] is cold allodynia induced by oxaliplatin. Nature of the test: Cold allodynia (acetone drop) induced by cumulative doses of oxaliplatin in the rat. Type of test: in vivo, rat (Sprague-Dawley). On the procedure:
The effect of the cholest-4-en-3-one oxime on cold allodynia induced by cumulative doses of oxaliplatin were evaluated in the rat. Adult male Sprague-Dawley rats weighing approximately 150 g were used. The oxaliplatin was injected by intra-peritoneal route at 3 mg/kg three times a week and for three weeks (total cumulative dose of 27 mg/kg). The paw withdrawal time as well as the amplitude of the animal's response to harmless thermal stimulations using a drop of acetone were measured in the rats before and after treatment by oxaliplatin on days 1 and 18 respectively, and then on each day of treatment with cholest-4-en-3-one oxime, from day 22 to day 25. The cholest-4-en-3-one oxime (1, 10 and 100 mg/kg once daily) was administered by oral route from day 22 to day 25 and the thresholds for withdrawal of the paw were measured 4 hours after administration of the cholest-4-en-3-one oxime. 7 to 9 rats were used per dose tested. For each animal, the reaction times at which the animals withdrew their hind paw following the deposition of the drop of acetone were calculated as the average of six consecutive tests carried out at 5-minute intervals by an investigator ignorant of the treatments applied to each of the animals. A limit of 20 seconds was imposed. The amplitude of the response to the drop of acetone was marked on a scale of 0 to 3: 0 (no response); 1 (rapid withdrawal of the paw); 2 (prolonged withdrawal of the paw); 3 (repeated withdrawal of the paw with licking and/or biting). The score of each of the six tests was totalled. A stock solution of cholest-4-en-3-one oxime in corn oil was prepared on the first day of the experimentation and administered once daily by oral tube feeding (5 ml/kg). The cholest-4-en-3-one oxime was reduced to a fine powder and mixed with the necessary quantity of vehicle in order to obtain concentrations of 0.2, 2 and 20 mg/ml, the mixture is then homogenized by magnetic stirring for at least 10 minutes. Stock solutions were kept at 4° C. between administrations. A statistical analysis was carried out using a two-way ANOVA test followed by Bonferroni's test in order to compare the effect of the test compound with respect to the vehicle.

The mark [4] stands for this setting: 3 mg/kg per os daily for 17 days.
The mark [5] stands for this setting: 30 mg/kg per os daily for 17 days.

For the compound `CC(C)CCC[C@@H](C)[C@H]1CC[C@H]2[C@@H]3CCC4=CC(=NO)CC[C@]4(C)[C@H]3CC[C@]12C` [cholest-4-en-3-one oxime], the “anti-allodynic effect on first day of administration” value in test [1] (oral 10 mg/kg, p=0.086) was “no significant anti-allodynic effect”; in test [1] (oral 30 mg/kg, P=0.232) it was “no significant anti-allodynic effect”; in test [3] (lower doses (1 and 10 mg/kg oral), day 22), “no significant anti-allodynic effect”. Further, the “effect on allodynia induced by vincristine, daily treatment” value in test [1] (oral 10, 30 and 100 mg/kg once daily, days 11 to 14, P<0.05 in all cases) was “significantly alleviates the allodynia”. Also, the “effect on allodynia induced by vincristine vs excipient” value in test [1] (single oral dose 100 mg/kg, day 10, measured 4 hours after administration, P<0.001) is reported as “significantly alleviates the allodynia”. In test [2] (3 mg/kg and 30 mg/kg per os daily day -1 to day 15, AUC D16 to D40, p<0.01), the “development of mechanical allodynia and hyperalgesia” value is “significantly inhibited”. The “anti-allodynia (4 gVFH)” value in test [2] (setting [4]) turned out to be 59%; in test [2] (setting [5]) it was 53%. The “anti-hyperalgesia (15 gVFH)” value in test [2] (setting [4]) amounted to 45%; in test [2] (setting [5]), 40%. Also, the “anti-allodynic effect after daily treatment” value in test [3] (oral 100 mg/kg once daily, days 22 to 25) is “persisted”. Moreover, the “effect on cold allodynia induced by oxaliplatin from third day of administration” value in test [3] (oral 1 and 10 mg/kg once daily, day 24, P<0.05) was “significantly reduced the cold allodynia”. The “effect on allodynia induced by oxaliplatin vs excipient” value in test [3] (single oral dose 100 mg/kg, day 22, P<0.05) is “significantly reduced the allodynia”.
